Consider 6 compounds from ChEMBL document CHEMBL3525998, “Metabolism of saikosaponin a in rats: diverse oxidations on the aglycone moiety in liver and intestine in addition to hydrolysis of glycosidic bonds” (Drug Metab Dispos, 2013).

Format in all cases: ADME, organism-based
Series [1] is described as follows: Drug recovery in po dosed rat excreted feces measured over 0 to 24 hrs after drug administration by HPLC analysis relative to starting drug dose. As to conditions: faeces, read-out: Drug recovery.
The nature of series [2]: Drug excretion in Sprague-Dawley rat feces treated with saikosaponin a at 15 mg/kg, iv by LC-DAD-IT-TOF-MS analysis. Set-up: dose 15 mg/kg, route intravenous. The note with it: in vivo.
A short description of series [3]: Drug excretion in Sprague-Dawley rat bile treated with saikosaponin a at 15 mg/kg, iv by LC-DAD-IT-TOF-MS analysis. Set-up: dose 15 mg/kg, route intravenous. The note with it: in vivo.
Series [4] can be described thus: Drug excretion in Sprague-Dawley rat urine treated with saikosaponin a at 50 mg/kg, po administered through gavage by LC-DAD-IT-TOF-MS analysis. Set-up: dose 50 mg/kg, route oral. The note with it: in vivo.
Series [5] is filed under the species Rattus norvegicus. Nature of the series: Drug level in Sprague-Dawley rat assessed as retention time treated with saikosaponin a by LC-DAD-IT-TOF-MS analysis.
The subject of series [6] is Plasma. Nature of the series: Drug level in Sprague-Dawley rat plasma treated with saikosaponin a at 15 mg/kg, iv by LC-DAD-IT-TOF-MS analysis. Set-up: dose 15 mg/kg, route intravenous. As to conditions: in vivo.
In series [7] the test system is Plasma. Nature of the series: Drug level in Sprague-Dawley rat plasma treated with saikosaponin a at 50 mg/kg, po administered through gavage by LC-DAD-IT-TOF-MS analysis. Set-up: dose 50 mg/kg, route oral. The note with it: in vivo.
Series [8] in a line: Drug excretion in Sprague-Dawley rat feces treated with saikosaponin a at 50 mg/kg, po administered through gavage by LC-DAD-IT-TOF-MS analysis. Set-up: dose 50 mg/kg, route oral. As to conditions: in vivo.
A short description of series [9]: Drug excretion in Sprague-Dawley rat urine treated with saikosaponin a at 15 mg/kg, iv by LC-DAD-IT-TOF-MS analysis. Set-up: dose 15 mg/kg, route intravenous. As to conditions: in vivo.
Series [10] in a line: Drug excretion in Sprague-Dawley rat bile treated with saikosaponin a at 50 mg/kg, po administered through gavage by LC-DAD-IT-TOF-MS analysis. Set-up: dose 50 mg/kg, route oral. The note with it: in vivo.

Bounds are passed on as bounds.

Take `C[C@H]1O[C@@H](O[C@H]2CC[C@@]3(C)[C@@H](CC[C@]4(C)[C@@H]3C=C[C@]35OC[C@@]6(CCC(C)(C)C[C@H]63)[C@@H](O)C[C@]54C)[C@]2(C)CO)[C@H](O)[C@@H](O)[C@H]1O`: the dose excreted in [1] is over 50%. The Drug excretion entry in series [2], in [3], in series [4], in series [8], in series [9] and in [10] was “metabolite_detected” each time. For the same compound, in series [5], the Retention_time turned out to be 45.5 min. The Drug metabolism result in [6] and in series [7] was “metabolite_detected” in each case.

For the compound `CC1(C)CC[C@]23CO[C@@]4(C=C[C@@H]5[C@@]6(C)CCC(=O)[C@@](C)(CO)[C@@H]6CC[C@@]5(C)[C@]4(C)C[C@@H]2O)[C@@H]3C1`, the Drug excretion entry in [4] and in [8] was “metabolite_detected” each time. For the same compound, in series [5], the Retention_time was found to be 52.3 min.

In the case of `CC1(C)CC[C@]23CO[C@@]4(C=C[C@@H]5[C@@]6(C)CC[C@H](O)[C@@](C)(CO)[C@@H]6CC[C@@]5(C)[C@]4(C(=O)O)C[C@@H]2O)[C@@H]3C1`, the Drug excretion entry in [2], in series [4] and in [8] was “metabolite_detected” in each case. Besides, in [5], the Retention_time is on record as 18.4 min.

On to `C[C@H]1O[C@@H](O[C@H]2CC[C@@]3(C)[C@@H](CC[C@]4(C)[C@@H]3CC=C3[C@@H]5CC(C)(C)CC[C@]5(CO)[C@@H](O)C[C@]34C)[C@]2(C)CO)[C@H](O)[C@@H](O[C@@H]2O[C@H](CO)[C@@H](O)[C@H](O)[C@H]2O)[C@H]1O`, for which, in [3], the Drug excretion entry is recorded as “metabolite_detected”. Further, in series [5], the Retention_time is on record as 22.9 min.

As for `CC1(C)CC[C@]23CO[C@@]4(C=C[C@@H]5[C@@]6(C)C=C[C@H](O)[C@@](C)(CO)[C@@H]6CC[C@@]5(C)[C@]4(C)C[C@@H]2O)[C@@H]3C1`, the Drug excretion entry in [4] and in series [8] was “metabolite_detected” in each case. Besides, in series [5], the Retention_time was 53.7 min.

`CC1(C)CC[C@]23CO[C@@]4(C=C[C@@H]5[C@@]6(C)CC[C@H](O)[C@@](C)(CO)[C@@H]6CC[C@@]5(C)[C@]4(C)C[C@@H]2O)[C@@H]3C1`: the dose excreted in series [1] was over 50%. The Drug excretion entry in series [2], in [4] and in series [8] was “metabolite_detected” in each case. The Retention_time in series [5] is 48.3 min.
